Results as given in ChEMBL document CHEMBL5344417.

Key:
[1] = target: T1, Peroxisome proliferator-activated receptor gamma (Homo sapiens) (UniProt P37231); details: filed as agonist
T1 sequence (whole entry): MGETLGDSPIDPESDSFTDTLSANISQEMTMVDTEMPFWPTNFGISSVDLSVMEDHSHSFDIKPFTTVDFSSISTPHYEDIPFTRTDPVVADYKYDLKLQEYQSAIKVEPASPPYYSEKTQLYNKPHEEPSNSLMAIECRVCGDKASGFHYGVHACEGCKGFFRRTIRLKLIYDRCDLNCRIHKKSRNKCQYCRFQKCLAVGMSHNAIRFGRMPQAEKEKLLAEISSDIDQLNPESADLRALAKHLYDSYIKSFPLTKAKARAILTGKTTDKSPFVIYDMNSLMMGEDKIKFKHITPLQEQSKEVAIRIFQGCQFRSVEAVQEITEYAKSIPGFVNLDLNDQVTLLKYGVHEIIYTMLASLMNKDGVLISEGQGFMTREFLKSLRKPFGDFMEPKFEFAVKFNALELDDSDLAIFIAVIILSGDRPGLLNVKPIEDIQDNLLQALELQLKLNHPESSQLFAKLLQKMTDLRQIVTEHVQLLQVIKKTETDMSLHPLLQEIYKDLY

[2] = target: T2, Peroxisome proliferator-activated receptor alpha (Homo sapiens) (UniProt Q07869); details: filed as agonist
T2 sequence (whole entry): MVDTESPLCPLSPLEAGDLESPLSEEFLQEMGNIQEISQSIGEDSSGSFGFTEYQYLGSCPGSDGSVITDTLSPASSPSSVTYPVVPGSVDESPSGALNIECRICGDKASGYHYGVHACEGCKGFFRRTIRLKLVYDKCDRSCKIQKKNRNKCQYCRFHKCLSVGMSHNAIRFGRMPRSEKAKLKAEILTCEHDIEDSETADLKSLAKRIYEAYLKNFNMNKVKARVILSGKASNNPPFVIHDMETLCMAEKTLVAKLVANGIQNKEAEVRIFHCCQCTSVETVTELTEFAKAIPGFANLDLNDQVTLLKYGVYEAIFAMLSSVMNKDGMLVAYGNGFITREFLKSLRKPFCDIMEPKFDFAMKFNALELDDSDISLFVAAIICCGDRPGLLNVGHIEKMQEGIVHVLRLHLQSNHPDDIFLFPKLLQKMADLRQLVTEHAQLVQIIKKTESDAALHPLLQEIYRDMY
Description: Binding affinity to recombinant PPAR alpha LBD (unknown origin) expressed in Escherichia coli BL21 assessed as melting temperature by differential scanning calorimetry analysis (Rvb = 47.45 degreeC)

Tm [1] [°C] | Tm [2] [°C] | Structure (SMILES)
53 |  | CN(CCOc1ccc(CC2SC(=O)NC2=O)cc1)c1ccccn1 (configuration not stated)
 | 50 | Cc1cccc(Nc2cc(Cl)nc(SCC(=O)O)n2)c1C
